# From patent publication US9604932B2 (priority 2013, dated 2017)
# Tests used:
# [1] = Plasma pharmacokinetics in pig (release of R-100 from R-107), LCMS; type: in vivo; details: for concentration at 0.08 h: 0.08 hrs post dose; for concentration at 0.17 h: 0.17 hrs post dose; for concentration at 0.25 h: 0.25 hrs post dose; for concentration at 0.5 h: 0.5 hrs post dose; for concentration at 1 h: 1 hrs post dose; for concentration at -0.08 h: −0.08 hrs post dose
# Protocol: In the following two experiments, the pharmacokinetic of releasing R-100 from R-107, via R-105 that is the reduced form of R-100, was studied in vivo according to the protocol described herein.
# 100 μl aliquots plasma obtained from R-107-treated sheep or pig were thawed and 200 μl ice-cold ethanol was added to each 100 μl sample to precipitate protein. Samples were then vortexed, placed on ice for 10 minutes, and then spun down at room temperature for 15 minutes. A first 100 μl supernatant from each spun sample was withdrawn and placed in a labeled HPLC micro vial to which 300 μl MPA (LC mobile phase A) was added, and the vial contents were then mixed and submitted for LCMS analysis (kept at 4° C.). The concentration of R-107 was measured in this sample as was the concentration of R105. A second 100 μl supernatant from each spun sample was added to a labelled HPLC micro vial to which 300 μl MPA and 2 μl of Reducing solution (ascorbic acid, 1.0 mg/ml in water) were added. These vials were vortexed; incubated at 50° C. for 1 hour with gentle shaking; and were then cooled to 4° C. and submitted for LCMS analysis. This sample was analyzed for R105, i.e., reduced form of R-100, and the amount measured thus represents the sum of R-100 and R-105 originally present in the plasma. The concentration of R-100 can be calculated from that of the R-105 in the second sample minus that of R-105 in the first sample. However, the concentrations of R-105 were seen to be low (approximately 10% or less of those of R-100) and so the results reported below as R-100 are not corrected for R-105.
# Sets of standards (R-100, R-105 and R-107) were prepared by spiking individually in pig plasma. 100 μl aliquots of these spiked plasma samples, after thawing, were included in the above extraction protocol.
# Analysis method were carried out with an Agilent HPLC stack, with column eluate directed, via a diverter valve, into the source of an AB Sciex ‘Qstar Elite’ Hybrid TOF, high-resolution mass spectrometer. LC column: Phenomenex Kinetex C18 2.6u 100A, 2.1×50 mm. LC mobile phase A: H2O with 0.02% trifluoroacetic acid (TFA), 0.1% formic acid (HOF); Phase B: acetonitrile (ACN) with 0.02% TFA, 0.1% HOF. Mobile phase flow rate=500 μl/min. Injection size: 8 μl, via Agilent 1100 u-WPS autosampler.
# [2] = system: peripheral hypertension (HTN); assay: Minipig model of peripheral hypertension; type: in vivo, minipigs; details: protocol only; enterically-coated oral capsule
# Protocol: In order to test the efficacy of R-107 in peripheral hypertension (HTN), a series of 3 hemodynamic studies is carried out in conscious, instrumented, ambulatory, and telemetered minipigs (n=5) with HTN secondary to an endovascular-created, unilateral, renovascular stenosis. Minipigs are treated with R-107 administered as an enterically-coated oral capsule.
# In Series A, the pharmacokinetic profile and hemodynamic effect of a single administration of R-107 (3, 10, 20, 30 mg/kg) is correlated with a one-week washout period between successive dose levels. Animals are monitored for 24 hours to collect continuous hemodynamic data and intermittent plasma concentrations of R-107 and its metabolites (0, 0.25, 0.5, 0.75, 1, 2, 4, 6, 8, 12, 16, 20, and 24 hours). In Series B, the most promising 2 doses of R-107 from Series A are evaluated by carrying out a repeat-dose study of R-107 administered every 6 hours (q6h) for a period of 3 days. The hemodynamic effects of R-107 are correlated with plasma peak and trough concentrations of R-107 and its metabolites obtained q6h. In Series C, the emergence of tachyphylaxis to R-107 in a 2 week repeat-dose study (q6h) is evaluated utilizing the optimal dose determined in Series B, wherein hemodynamics are correlated with plasma pharmacokinetic determinations as in Series B.
# [3] = system: renal ischemia-reperfusion injury; assay: Rat model of renal ischemia-reperfusion injury; type: in vivo, Sprague-Dawley rats; details: protocol only; 80 mg/kg IV infusion
# [4] = system: myocardial ischemia-reperfusion injury; assay: Rat model of myocardial ischemia-reperfusion injury; type: in vivo, Sprague-Dawley rats; details: protocol only; 10, 30, 80 mg/kg IV
# Protocol: In order to test the efficacy of R-107 in a myocardial ischemia reperfusion injury, male aged Sprague-Dawley rats are dosed with R-107 (0, 10, 30, 80 mg/kg IV) 10 minutes prior to the end of a 30 minutes period of ischemia produced by occlusion of the left anterior descending (LAD) coronary artery. Cardiac function is monitored by a Millar catheter for the determination of heart rate (HR), systolic and diastolic blood pressure (BP), left ventricular (LV) systolic BP, LV end-diastolic BP (LVEDP), ±dP/dt, pressure-volume (PV) loop, and tau (τ). 3 hours post-ischemia, blood and myocardium are analyzed for morphologic, histochemical, and bioanalytical injury. The area of necrosis, as a % of area at risk (AAR), and the extent of the no-reflow zone are quantified.
# [5] = system: limb ischemia reperfusion injury (LIRI); assay: Minipig model of limb ischemia-reperfusion injury; type: in vivo, minipigs; details: protocol only; 10, 30, 80 mg/kg/day TID
# Protocol: In this study, the efficacy of R-107 in a limb ischemia reperfusion injury (LIRI) is tested. In a large animal model of acute LIRI (n=6 minipigs per group) induced by an endovascular balloon occlusion of the femoral artery for 6 hours, parenteral R-107 (0, 10, 30, 80 mg/kg/day TID) is initiated 10 minutes before reperfusion via direct arterial infusion, followed by an IV infusion thereafter. At 7, 14, and 21 days after reperfusion, limb perfusion (by Doppler flow) is correlated with nerve conduction velocity (NCV, per electromyography, EMG), and muscle strength (by foot pressure on a walking surface) with simultaneous plasma concentrations of R-107.
# [6] = IV R-107 diluted in 4 parts of PEG400, 18 mg/kg over 6 minutes, 24 hrs post dose
# [7] = capsule per os of neat R-107 88 mg/kg, 24 hrs post dose
# [8] = plasma, IV R-107 diluted in 4 parts of PEG400, 18 mg/kg over 6 minutes
# [9] = plasma, IV neat R-107 88 mg/kg over 6 minutes
# [10] = plasma, oral, capsule per os of neat R-107 88 mg/kg
structure (smiles),measurement,setting,value
"CC(=O)ON1C(C)(C)CC(CO[N+](=O)[O-])C1(C)C (stereo not shown) [R-107, 2,2,5,5-tetramethyl-3-(nitrooxymethyl)pyrrolidin-1-yl acetate]",R-107 in plasma,"[1]; IV R-107 diluted in 4 parts of PEG400, 18 mg/kg over 6 minutes, 2 hrs post dose",not detected
same,R-107 in plasma,"[1]; IV R-107 diluted in 4 parts of PEG400, 18 mg/kg over 6 minutes, 4 hrs post dose",not detected
same,R-107 in plasma,"[1]; IV R-107 diluted in 4 parts of PEG400, 18 mg/kg over 6 minutes, 8 hrs post dose",not detected
same,R-100 in plasma,[1]; [6],not detected
same,R-107 in plasma,[1]; [6],not detected
same,R-107 in plasma,"[1]; IV neat R-107 88 mg/kg over 6 minutes, 6 hrs post dose",not detected
same,R-107 in plasma,"[1]; IV neat R-107 88 mg/kg over 6 minutes, 24 hrs post dose",not detected
same,R-107 in plasma,"[1]; capsule per os of neat R-107 88 mg/kg, 8 hrs post dose",not detected
same,R-100 in plasma,[1]; [7],not detected
same,R-107 in plasma,[1]; [7],not detected
same,concentration at 0.08 h,[1]; [8],2380 ng/mL
same,concentration at 0.17 h,[1]; [8],640 ng/mL
same,concentration at 0.25 h,[1]; [8],430 ng/mL
same,concentration at 0.5 h,[1]; [8],250 ng/mL
same,concentration at 1 h,[1]; [8],220 ng/mL
same,concentration at -0.08 h,[1]; [8],0 ng/mL
same,concentration at 0.08 h,[1]; [9],5240 ng/mL
same,concentration at 0.17 h,[1]; [9],5870 ng/mL
same,concentration at 0.25 h,[1]; [9],3430 ng/mL
same,concentration at 0.5 h,[1]; [9],1320 ng/mL
same,concentration at 1 h,[1]; [9],360 ng/mL
same,concentration at 2 h,"[1]; plasma, IV neat R-107 88 mg/kg over 6 minutes, 2 hrs post dose",260 ng/mL
same,concentration at -0.08 h,[1]; [9],0 ng/mL
same,concentration at 0.08 h,[1]; [10],1.32 ng/mL
same,concentration at 0.17 h,[1]; [10],0.715 ng/mL
same,concentration at 0.5 h,[1]; [10],0.345 ng/mL
same,concentration at 1 h,[1]; [10],0.11 ng/mL
same,concentration at 2 h,"[1]; plasma, oral, capsule per os of neat R-107 88 mg/kg, 2 hrs post dose",0.222 ng/mL
same,concentration at 3 h,"[1]; plasma, oral, capsule per os of neat R-107 88 mg/kg, 3 hrs post dose",0.11 ng/mL
same,concentration at 4 h,"[1]; plasma, oral, capsule per os of neat R-107 88 mg/kg, 4 hrs post dose",0.122 ng/mL
same,Efficacy in minipig model of peripheral hypertension,[2],Effective
same,Efficacy in rat model of renal ischemia-reperfusion injury,[3],Effective
same,Efficacy in rat model of myocardial ischemia-reperfusion injury,[4],Effective
same,Efficacy in minipig model of limb ischemia-reperfusion injury,[5],Effective
